Like-named read-outs stand apart in the source and are kept apart here.
Columns and labels:
[1] = molecular target: CYP3A4 (Homo sapiens, UniProt P08684); experiment: Inhibition of CYP3A4-mediated midazolam 1′-hydroxylase in ultrapooled human liver microsomes; format: in vitro ADME; conditions: for IC50: CYP3A4 midazolam 1′-hydroxylase
Experimental: (§1) The inhibitory potentials (IC50 values) of APINACA and typical CYP inhibitors on CYP 1A2, 2A6, 2C8, 2C9, 2C19, 2D6, and 3A4 activities in pooled human liver microsomes were evaluated following our previous method using a cocktail of CYP substrates, followed by LC–MS/MS [43]. […] After 3 min of preincubation at 37 °C, the reaction mixtures were incubated for 15 min at 37 °C with the addition of NADPH in a shaking water bath. The reaction was stopped by adding 100 μL of ice cold methanol containing internal standards (d9-1′-hydroxybufuralol for 1′-hydroxybufuralol, 4′-hydroxydiclofenac, 7-hydroxycoumarin, 1′-hydroxymidazolam, and 4′-hydroxymephenytoin; ^13C2, ^15N-acetaminophen for acetaminophen and N-desethylamodiaquine). The incubation mixtures were centrifuged at 13,000× g for 8 min at 4 °C, and 50 μL of each supernatant was diluted with 50 μL of water. Aliquots (5 μL) of the diluted supernatants were analyzed by LC–MS/MS. All assays were performed in triplicate, and the average values were used for subsequent calculations.
(§2) To measure the time-dependent inhibition, human liver microsomes were preincubated with the various concentrations of APINACA (final concentrations of 0.1−100 μM) and NADPH for 30 min at 37 °C. Next, the reaction mixtures were incubated with a seven-CYP probe substrate cocktail or bupropion for 15 min at 37 °C. The control reaction was performed by adding methanol instead of the test compounds.
The column and autosampler temperatures were 40 °C and 4 °C, respectively.
The data were processed using Mass Hunter software (Agilent Technologies).
1.1 (Systat Software, Inc.).

[2] = molecular target: T1, OATP1B1 (Homo sapiens, UniProt Q9Y6L6); experiment: Uptake of [3-H]estrone-3-sulfate in HEK293-OATP1B1 cells; format: in vitro ADME
T1 construct: host or cells: HEK293 (transient overexpression)
T1 sequence (Q9Y6L6 1-691): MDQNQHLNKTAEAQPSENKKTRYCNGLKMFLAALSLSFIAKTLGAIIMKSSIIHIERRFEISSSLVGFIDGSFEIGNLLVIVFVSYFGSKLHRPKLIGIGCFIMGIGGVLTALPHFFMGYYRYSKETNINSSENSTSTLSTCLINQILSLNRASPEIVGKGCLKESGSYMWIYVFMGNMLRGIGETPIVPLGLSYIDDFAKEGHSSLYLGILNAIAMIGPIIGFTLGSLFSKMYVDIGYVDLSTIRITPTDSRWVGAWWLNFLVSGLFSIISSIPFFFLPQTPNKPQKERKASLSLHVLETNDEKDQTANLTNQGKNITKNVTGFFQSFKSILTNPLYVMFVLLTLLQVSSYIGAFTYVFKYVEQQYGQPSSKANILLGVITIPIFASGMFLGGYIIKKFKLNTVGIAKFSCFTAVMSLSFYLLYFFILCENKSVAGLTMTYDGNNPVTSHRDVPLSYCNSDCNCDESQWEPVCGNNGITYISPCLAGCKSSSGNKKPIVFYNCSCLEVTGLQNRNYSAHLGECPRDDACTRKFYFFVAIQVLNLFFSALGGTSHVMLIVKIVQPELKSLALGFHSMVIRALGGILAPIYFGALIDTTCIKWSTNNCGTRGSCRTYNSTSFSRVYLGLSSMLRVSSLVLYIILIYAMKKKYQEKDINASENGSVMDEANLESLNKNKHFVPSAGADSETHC
Experimental: To examine the effects of APINACA and typical inhibitors on transporter activity, the uptake of a probe substrate into HEK293 cells overexpressing the respective solute carrier transporters was measured in the presence of APINACA (final concentrations of 0–250 μM) or typical inhibitors for 5 min. The concentrations and probe substrates were selected as follows: 0.1 μM [3-H]MPP^+ (for OCT1 and OCT2), 0.1 μM [3-H]PAH (for OAT1), 0.1 μM [3-H]ES (for OAT3 and OATP1B1), and 0.1 μM [3-H]EG (for OATP1B3).
12.5 (Systat Software, Inc.; San Jose, CA, USA). […] 1.1 (Systat Software, Inc.).

[3] = molecular target: CYP2C8 (Homo sapiens, UniProt P10632); experiment: Inhibition of CYP2C8-catalyzed amodiaquine N-deethylase in ultrapooled human liver microsomes; format: in vitro ADME
Experimental: as §1
as §2, with “The control reaction was performed by adding methanol instead of the test compounds.” left out

[4] = molecular target: T2, BCRP (Homo sapiens, UniProt Q9UNQ0); experiment: B to A transport of [3-H]estrone-3-sulfate in LLC-PK1-BCRP cells; format: in vitro ADME; conditions: human, LLC-PK1-BCRP cell monolayers on filter membranes, probe [3H]estrone-3-sulfate (0.1 μM), B to A transport
T2 sequence (Q9UNQ0 1-655): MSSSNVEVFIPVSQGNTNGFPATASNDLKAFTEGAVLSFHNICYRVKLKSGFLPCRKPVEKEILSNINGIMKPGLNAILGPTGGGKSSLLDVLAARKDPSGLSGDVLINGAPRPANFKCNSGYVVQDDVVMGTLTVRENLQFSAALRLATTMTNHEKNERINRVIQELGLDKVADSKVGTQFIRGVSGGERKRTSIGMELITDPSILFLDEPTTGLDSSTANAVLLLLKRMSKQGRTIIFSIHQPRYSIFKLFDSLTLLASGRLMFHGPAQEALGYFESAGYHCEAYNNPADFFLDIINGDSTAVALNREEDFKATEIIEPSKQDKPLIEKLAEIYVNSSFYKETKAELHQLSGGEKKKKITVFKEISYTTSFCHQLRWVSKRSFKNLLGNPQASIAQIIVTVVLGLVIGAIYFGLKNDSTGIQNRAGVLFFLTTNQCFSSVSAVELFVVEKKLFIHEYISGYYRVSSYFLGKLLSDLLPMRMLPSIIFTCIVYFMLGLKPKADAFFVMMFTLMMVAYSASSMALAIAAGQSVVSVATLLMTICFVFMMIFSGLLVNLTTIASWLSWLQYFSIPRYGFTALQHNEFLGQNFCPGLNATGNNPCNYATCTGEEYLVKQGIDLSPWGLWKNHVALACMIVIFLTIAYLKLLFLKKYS

[5] = blood samples of three driving under the influence of drugs cases; cited from earlier work

Sequence of CYP3A4 (P08684 2-503): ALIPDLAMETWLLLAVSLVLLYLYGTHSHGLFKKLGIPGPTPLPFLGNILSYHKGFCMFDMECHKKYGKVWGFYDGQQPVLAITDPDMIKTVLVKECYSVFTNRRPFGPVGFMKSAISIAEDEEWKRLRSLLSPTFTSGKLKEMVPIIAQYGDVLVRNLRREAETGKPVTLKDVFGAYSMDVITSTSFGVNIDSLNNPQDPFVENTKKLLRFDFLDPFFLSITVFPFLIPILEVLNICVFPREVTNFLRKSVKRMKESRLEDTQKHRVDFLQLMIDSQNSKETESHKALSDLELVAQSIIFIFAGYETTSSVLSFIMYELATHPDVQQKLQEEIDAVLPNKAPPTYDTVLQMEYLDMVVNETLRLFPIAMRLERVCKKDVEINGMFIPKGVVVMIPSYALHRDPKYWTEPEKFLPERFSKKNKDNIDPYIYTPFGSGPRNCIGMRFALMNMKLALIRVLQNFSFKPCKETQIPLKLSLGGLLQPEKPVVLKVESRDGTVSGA
Sequence of CYP2C8 (P10632 whole entry): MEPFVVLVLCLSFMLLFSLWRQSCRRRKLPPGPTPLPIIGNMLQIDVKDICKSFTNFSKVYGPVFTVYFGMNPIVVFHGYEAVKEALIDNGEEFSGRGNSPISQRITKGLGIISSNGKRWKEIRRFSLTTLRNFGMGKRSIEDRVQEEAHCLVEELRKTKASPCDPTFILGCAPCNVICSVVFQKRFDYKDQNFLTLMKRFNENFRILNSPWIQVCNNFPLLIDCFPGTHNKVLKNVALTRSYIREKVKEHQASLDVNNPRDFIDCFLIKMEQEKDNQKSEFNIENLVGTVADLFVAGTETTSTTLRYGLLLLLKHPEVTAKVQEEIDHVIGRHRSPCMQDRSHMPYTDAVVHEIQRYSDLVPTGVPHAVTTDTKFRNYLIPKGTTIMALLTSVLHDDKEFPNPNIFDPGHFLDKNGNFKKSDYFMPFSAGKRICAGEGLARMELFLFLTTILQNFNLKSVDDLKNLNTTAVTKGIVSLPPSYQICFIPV

CCCCCn1nc(C(=O)NC23CC4CC(CC(C4)C2)C3)c2ccccc21 [APINACA, N-(1-adamantyl)-1-pentyl-1H-indazole-3-carboxamide]
IC50 ([1]; IC50 (μM) No Preincubation, 2.5 μM midazolam, no preincubation): 16.9 µM | IC50 ([1]; IC50 (μM) With Preincubation, 30-min preincubation with NADPH): 4.2 µM | fold lower IC50 of CYP3A4 midazolam 1′-hydroxylase after 30-min preincubation than with no preincubation ([1]; NADPH): ca. 4 fold | IC50 [2]: > 250 µM | IC50 [3]: > 100 µM | IC50 ([3]; read-out: IC50 (μM) With Preincubation, CYP2C8 amodiaquine N-deethylase, ultrapooled human liver microsomes, 30-min preincubation with NADPH): > 100 µM | IC50 [4]: > 100 µM | blood concentrations [5]: 0.66 to 67.1 nM
